Measurements as given in ChEMBL document CHEMBL1201862, “PubChem BioAssay data set” (2004).
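Results reflect a 48-hour exposure of cells in 96-well plates to compound at five concentrations. At the GI50, growth is halved.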 Activity calls are given as the source filed them. No stated cut-off is given here; in the data, active = GI50 up to about 1.1 µM and inactive = higher.

Columns and labels:
Assay in all cases: DTP human tumour cell line panel, 48 h
[1] = test system: SF-268
[2] = test system: MDA-MB-231
[3] = test system: OVCAR-3
[4] = test system: A498
[5] = test system: NCI-H460
[6] = test system: HT-29
[7] = test system: IGROV-1
[8] = test system: MCF7
[9] = test system: HCT-116
[10] = test system: OVCAR-5
[11] = test system: TK-10
[12] = test system: 786-0
[13] = test system: CCRF-CEM
[14] = test system: DU-145
[15] = test system: SF-539
[16] = test system: K562
[17] = test system: Hs-578T
[18] = test system: UO-31
[19] = test system: PC-3
[20] = test system: SR

Measured: GI50

CCN1CC(C)Cn2c(=O)[nH]c3cc(Br)cc1c32 (stereo not drawn)
inactive: [1] 10.9 µM | [2] 22.4 µM | [3] 20.3 µM | [4] 16.9 µM | [5] 30.6 µM | [6] 33.5 µM | [7] 18.5 µM | [8] 17.3 µM | [9] 29.9 µM | [10] 70.5 µM | [11] 25 µM | [12] 22.6 µM | [13] 7.67 µM | [14] 48.8 µM | [15] 29.8 µM | [16] 2.91 µM | [17] 11 µM | [18] 40.1 µM | [19] 30.9 µM

CC(C)OC1OC(CO)C(O)CC1n1cc(F)c(=O)[nH]c1=O (stereo not drawn)
inactive: [1] 59.3 µM | [2] > 100 µM | [3] > 100 µM | [4] > 100 µM | [5] > 100 µM | [6] > 100 µM | [7] > 100 µM | [8] 46 µM | [9] > 100 µM | [10] > 100 µM | [11] > 100 µM | [12] > 100 µM | [14] > 100 µM | [15] > 100 µM | [16] 34.4 µM | [17] 86.3 µM | [18] > 100 µM | [19] > 100 µM

Nc1nc(N)c(NC(=O)CCCO)c(=O)[nH]1
inactive: [1] > 100 µM | [2] > 100 µM | [3] > 100 µM | [4] > 100 µM | [5] > 100 µM | [6] > 100 µM | [7] > 100 µM | [8] > 100 µM | [9] > 100 µM | [10] > 100 µM | [11] > 100 µM | [12] > 100 µM | [13] > 100 µM | [14] > 100 µM | [15] > 100 µM | [16] > 100 µM | [17] > 100 µM | [18] > 100 µM | [19] > 100 µM

Oc1ccc(Br)cc1/C=N/c1cccc(C(F)(F)F)c1
inactive: [1] 8.69 µM | [2] 23.4 µM | [3] 37 µM | [4] > 100 µM | [5] > 100 µM | [6] 37.8 µM | [7] 6.24 µM | [8] 14.5 µM | [9] 9.12 µM | [10] > 100 µM | [11] > 100 µM | [12] 30.4 µM | [13] 3.37 µM | [14] 36.8 µM | [15] 20.8 µM | [16] 12.4 µM | [17] 28 µM | [18] 35.6 µM | [19] 7.16 µM

O=C1CC(=O)c2c(Cl)sc(Cl)c21
inactive: [1] 64.7 µM | [2] > 100 µM | [3] 86.5 µM | [4] > 100 µM | [5] > 100 µM | [6] > 100 µM | [7] > 100 µM | [20] 25.6 µM | [8] 45.5 µM | [9] > 100 µM | [10] > 100 µM | [11] > 100 µM | [12] > 100 µM | [13] 37.2 µM | [14] > 100 µM | [15] > 100 µM | [16] 40.9 µM | [17] 33.8 µM | [18] > 100 µM

COC(=O)/C(=N\NC(N)=O)C(C(=O)C(=O)Nc1ccccc1OC)c1nc2ccc([N+](=O)[O-])cc2nc1O (stereo not drawn)
inactive: [1] > 100 µM | [2] > 100 µM | [3] > 100 µM | [4] > 100 µM | [5] > 100 µM | [6] > 100 µM | [7] 53.1 µM | [20] > 100 µM | [8] > 100 µM | [9] > 100 µM | [10] > 100 µM | [11] > 100 µM | [12] > 100 µM | [13] > 100 µM | [15] > 100 µM | [16] 30 µM | [17] 82.2 µM | [18] > 100 µM | [19] > 100 µM

Nc1ncnc2c1cnn2Cc1cn(COCC(O)CO)nn1 (stereo not drawn)
inactive: [1] 18.1 µM | [2] > 100 µM | [3] > 100 µM | [4] > 100 µM | [6] > 100 µM | [7] > 100 µM | [8] > 100 µM | [9] > 100 µM | [10] > 100 µM | [11] > 100 µM | [12] > 100 µM | [13] > 100 µM | [14] > 100 µM | [15] > 100 µM | [17] 14.4 µM | [18] > 100 µM | [19] > 100 µM

Nc1nc(O)nc2c1ncn2C1OC(CO)C(O)C1O (stereo not drawn)
inactive: [1] > 100 µM | [2] 38 µM | [3] 52.7 µM | [4] > 100 µM | [5] > 100 µM | [6] > 100 µM | [7] > 100 µM | [8] 29 µM | [9] 45 µM | [10] > 100 µM | [11] 38.5 µM | [12] 97.5 µM | [13] 33 µM | [14] 23.5 µM | [16] 44.2 µM | [17] > 100 µM | [18] 49.9 µM | [19] 22.6 µM
